In publication PMC9101764, “Synthesis and In Vitro Characterization of Selective Cannabinoid CB2 Receptor Agonists: Biological Evaluation against Neuroblastoma Cancer Cells” (Molecules, 2022):
Read-outs that look alike come from different tables or passages of the source.

How the values were obtained:
SH-SY5Y cells [1] = test: Sulforhodamine B (SRB) cell viability assay; type: cell-based, human; conditions: for effect on cell viability: 24 h, 48 h and 72 h, 2.5–40 µM; for IC50: Homo sapiens, 72 h of treatment, SRB, cis/trans mixture
Experimental: We tested the anti-proliferative activity of the novel CB2R agonists FG158a, FG160a, FG161a, and LV62 in neuroblastoma cell lines (Figure 4). The compounds were assayed as a mixture of cis and trans isomers. […] After 72 h of treatment, the effect was higher and could also be observed at lower concentrations. The inhibitory effect was confirmed in another neuroblastoma cell line, SK-N-BE cells.
Human neuroblastoma SHSY5Y and SK-N-BE cell lines were grown in DMEM (GIBCO, Paisley, UK) and MEM (Sigma-Aldrich, St.Louis, MO, USA), respectively, supplemented with 2 mM l-glutamine, […], 50 units/mL penicillin and 10% heat-inactivated fetal bovine serum (FBS) in a humidified atmosphere (5% CO2 at 37 °C). Cells were detached as previously described with 0.25% trypsin (Sigma-Aldrich) at 70–80% confluence.
(§1) Cells seeded for 24 h in triplicate in 96-well plates at a density of 8000 cells/well were left to adhere overnight. CB2R agonists were added to the culture in triplicate at concentrations ranging from 2.5–40 µM. After 24 h, 48 h, and 72 h, cells were fixed, shaking for 2 h at 4 °C with 50% v/v trichloroacetic acid and washed with distilled water. Cells left overnight to dry were stained with 0.4% w/v SRB in 1% v/v acetic acid (at room temperature for 30 min on a shaker) and then washed with 1% acetic acid to allow for the removal of the unbound dye. TRIS-HCl 10 mM, pH 7.4 was added to the cells and absorbance was measured at 495 nm as previously shown using a Glomax® Discover Microplate Reader (Promega, Madison, WI, USA). In combinatory assays, similar procedures were adopted and the CB2R antagonist SR144528 (1 µM) was added 1 h before the CB2 agonists (10, 20 and 40 µM) to SHSY5Y cells that were harvested as described above after 72 h of incubation.
Figure 4 Inhibition of cell viability. The effect on cell viability by CB2R agonists was determined by sulforhodamine B (SRB) assays in SH-SY5Y and SK-N-BE cell lines. SH-SY5Y cells were treated with the compounds indicated in the figure for 24 h (A), 48 h (B), and 72 h (C) at the concentrations reported in the histograms. SK-N-BE cells were treated with the same compounds for 72 h (D). Figures report cell viability (mean of at least 3 independent experiments ± SEM) as percent of cell survival vs. untreated cells (considered as 100% of survival). […] The statistical significance was calculated with two-way ANOVA using Dunnett’s multiple comparisons test.

hCB2R [2] = target: T1, hCB2R (Homo sapiens, UniProt P34972); test: PathHunter β-arrestin2 recruitment assay in CHO cells; type: cell-based
T1 construct: host or cells: HitHunter CHO-K1 cells
Experimental: Compounds FG158a, FG160a, FG161a, and LV62 were also evaluated for their ability to recruit β-arrestin2, since G protein-coupled receptors also interact with β-arrestin, which facilitates receptor internalization, recycling, degradation, and signaling.
(§2) CHO cells stably expressing hCB1R or hCB2R were maintained at 37 °C and 5% CO2 in Gibco Ham’s F-12 nutrient mix (Fisher Scientific, Loughborough, UK ) supplemented with 2 mM L-glutamine, 10% fetal bovine serum (FBS), 0.6% penicillin−streptomycin (Fisher Scientific, Loughborough UK), and the disulfate salt of geneticin (G418) as previously described (Sigma-Aldrich, Poole, UK). For subsequent radioligand displacement assays, membranes were prepared by scraping cells from flasks, centrifuging the cells, and storing the cell pellet at −20 °C. When required for us, cell pellets were defrosted and diluted in tris buffer (50 mM Tris-HCl and 50 mM Tris-base). As we have described in previous studies, HitHunter (cAMP) and PathHunter (βarrestin2) CHO-K1 cells stably expressing hCB1R or hCB2R from DiscoveRx® (Eurofins, Fremont, CA, USA) were maintained at 37 °C, 5% CO2 in F-12 DMEM containing 10% FBS and 1% Pen/Strep with 800 µg/mL geneticin (HitHunter) or 800 µg/mL G418 and 300 µg/mL hygromycin B (PathHunter).
The quantification of β-arrestin2 recruitment using the DiscoveRx PathHunter assay has been described by our group previously and is summarized here.. Twenty thousand cells/well were grown overnight in Opti-MEM containing 1% FBS at 37 °C and 5% CO2 in low-volume 96 well plates. The next day, cells were treated with compounds for 90 min at 37 °C. Detection solution was added to cells according to the manufacturer’s directions (DiscoveRx) and cells were stored for 60 min at room temperature. After this incubation, chemiluminescence was quantified on a Cytation5 plate reader (top read, gain 200, integration time 10,000 ms).
(§3) Estimates of Ki, EC50, and Emax were determined using non-linear regression three-parameters (GraphPad, Prism, v. 9.0).
(§4) Data are fitted to a non−linear regression (three parameter model, GraphPad v. 9.0). Data are mean ± S.E.M. of 6 independent experiments performed in triplicate.

hCB2R [3] = target: T1, hCB2R; test: HitHunter cAMP assay: inhibition of FSK-stimulated cAMP accumulation in CHO cells; type: cell-based; conditions: for modulation of cAMP response: CHO cells expressing hCB2R
Experimental: For the cAMP inhibition assay, cells were treated with 10 μM FSK and synthetized compounds for 90 min to assess compound concentration-dependent activity.
as §2
The quantification of FSK-stimulated cAMP accumulation using the DiscoveRx HitHunter assay (DiscoveRx, Eurofins, Fremont, CA, USA) has been described in detail previously elsewhere. Briefly, 20,000 cells/well were plated in low-volume 96-well plates and incubated overnight in Opti-MEM with 1% FBS at 37 °C and 5% CO2. The next day, the media were replaced with cell assay buffer (DiscoveRx). Immediately after this, the cells were simultaneously treated with 10 µM FSK and ligands for 90 min. Subsequent additions of cAMP antibody solution and cAMP working detection solutions followed the manufacturer’s directions (DiscoveRx) and cells were stored for 60 min at room temperature. cAMP solution A (DiscoveRx) was added according to the manufacturer’s directions followed by another 60 min room temperature incubation prior to chemiluminescence being measured on a Cytation5 plate reader (top read, gain 200, integration time 10,000 ms).
as §3, §4

hCB2R [4] = target: T1, hCB2R; test: [3H]CP55,940 radioligand displacement assay, CHO cell membranes; type: binding; conditions: for displacement of [3H]CP55,940 at hCB2R: CHO membranes, 0.1 nM-10 μM compounds
Experimental: as §2
(§5) We have previously described radioligand displacement assays in detail. […] Binding reactions were terminated by ice-cold tris binding buffer and subsequent vacuum filtration (24-well sampling manifold (Brandel cell harvester; Brandel Inc., Gaithersburg, MD, USA)) using Brandel GF/B filters soaked in wash buffer at 4 °C for at least 24 h. Filters were washed with 1.2 mL of tris-binding buffer six times, then oven-dried for 60 min before being incubated in 3 mL of scintillation fluid (Ultima Gold XR, PerkinElmer, Seer Green, Buckinghamshire, UK). Radioactivity was quantified by liquid scintillation spectrometry. All compounds were first prepared at 10 mM solutions in DMSO. The final vehicle concentration for assays was 0.1% DMSO. All assays were performed in duplicate.
as §3

hCB1R = target: T2, hCB1R (Homo sapiens, UniProt P21554); test: as above; type: binding; conditions: for displacement of [3H]CP55,940 at hCB1R: CHO membranes, 0.1 nM-10 μM compounds
T2 construct: expressed in transfected cells; host or cells: CHO cells (membranes)
Experimental: as §2, §5, §3

SH-SY5Y cells [5] = system: SH-SY5Y cells; parameters: method as in PMID 26842917; conditions: presumably via a CB2R-independent mechanism; cited from earlier work
SH-SY5Y cells [6] = test: SRB cell viability assay with pre-incubation of CB2R antagonist SR144528; type: cell-based, human; conditions: SR144528 1 µM added 1 h before, 72 h, agonists at 10, 20 and 40 µM
Experimental: To address a CB2R-mediated mechanism, we tested FG158a, LV62, and FG160a at inhibitory concentrations in SH-SY5Y cells pre-incubated with the CB2R antagonist SR144528. After 72 h of treatment, we observed a reversion in cell viability at 20 and 40 µM of FG158a and FG160a in the presence of SR144528. The inhibitory effect of LV62 was reverted only at 40 µM (Figure 5).
as §1, with “In combinatory assays, similar procedures were adopted and the CB2R antagonist SR144528 (1 µM) was added 1 h before the CB2 agonists (10, 20 and 40 µM) to SHSY5Y cells that were harvested as described above after 72 h of incubation.” left out
Figure 5 CB2R–mediated effect on cell viability. […] Figures (A–C) report cell viability (mean of 3 independent experiments) expressed as absorbance (Abs). The statistical significance was calculated with two-way ANOVA using Tukey’s multiple comparisons test (* p ≤ 0.05).

[7] = CHO cells expressing human CB2R, 90 min
[8] = CHO cells expressing human CB2R, 10 μM FSK, 90 min

T2 sequence (P21554 whole entry): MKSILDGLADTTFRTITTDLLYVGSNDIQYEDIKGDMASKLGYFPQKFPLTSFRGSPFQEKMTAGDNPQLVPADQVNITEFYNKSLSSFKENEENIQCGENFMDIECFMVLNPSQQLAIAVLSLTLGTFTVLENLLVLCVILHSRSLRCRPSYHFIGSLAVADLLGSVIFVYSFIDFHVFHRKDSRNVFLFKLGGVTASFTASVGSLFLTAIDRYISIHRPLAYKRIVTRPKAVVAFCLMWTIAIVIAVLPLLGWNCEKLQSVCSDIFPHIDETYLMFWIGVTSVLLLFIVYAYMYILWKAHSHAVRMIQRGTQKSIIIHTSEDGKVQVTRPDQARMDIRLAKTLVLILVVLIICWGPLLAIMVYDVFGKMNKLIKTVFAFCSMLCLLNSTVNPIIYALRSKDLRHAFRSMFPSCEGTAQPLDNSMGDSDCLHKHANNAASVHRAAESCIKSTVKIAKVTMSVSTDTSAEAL
T1 sequence (P34972 whole entry): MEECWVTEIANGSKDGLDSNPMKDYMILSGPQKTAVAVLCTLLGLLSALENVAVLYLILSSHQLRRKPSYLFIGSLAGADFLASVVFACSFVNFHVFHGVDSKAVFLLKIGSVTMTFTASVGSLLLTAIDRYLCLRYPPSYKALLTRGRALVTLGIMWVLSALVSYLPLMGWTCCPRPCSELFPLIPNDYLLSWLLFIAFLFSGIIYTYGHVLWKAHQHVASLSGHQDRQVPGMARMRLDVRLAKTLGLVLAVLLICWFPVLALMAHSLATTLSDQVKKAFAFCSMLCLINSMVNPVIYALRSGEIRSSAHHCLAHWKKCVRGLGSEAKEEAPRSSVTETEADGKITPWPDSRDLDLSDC

CC1CCC(NC(=O)c2cc3cccnc3n(CCCCCCl)c2=O)CC1 (stereo not drawn) [FG160a, 1-(5-chloropentyl)-N-(4-methylcyclohexyl)-2-oxo-1,2-dihydro-1,8-naphthyridine-3-carboxamide]
effect on cell viability (SH-SY5Y cells [1]): inhibited cell viability | IC50 (SH-SY5Y cells [1]): 13200 nM | EC50 (hCB2R [2]): > 10000 nM | β-Arrestin2 Recruitment Emax (% CP55,940) ± S.E.M (hCB2R [2]; [7]): 41 ± 1.0 % CP55,940 | EC50 (hCB2R [3]): 600 nM | modulation of cAMP response (hCB2R [3]; 10 μM FSK, 90 min): able to modulate the cAMP response | cAMP Inhibition Emax (% CP55,940) ± S.E.M (hCB2R [3]; [8]): 90 ± 3.1 % CP55,940 | melting point: 124 to 126 °C | Ki (hCB2R [4]): 16.5 nM | displacement of [3H]CP55,940 at hCB2R (hCB2R [4]): fully displaced [^3H]CP55,940 | Ki (hCB1R): > 10000 nM | displacement of [3H]CP55,940 at hCB1R (hCB1R): not able to displace [^3H]CP55,940

CC1CCC(NC(=O)c2cc3cccnc3n(CCCCCN=[N+]=[N-])c2=O)CC1 (stereo not drawn) [FG161a, 1-(5-azidopentyl)-N-(4-methylcyclohexyl)-2-oxo-1,2-dihydro-1,8-naphthyridine-3-carboxamide]
effect on cell viability (SH-SY5Y cells [1]): inhibited cell viability | IC50 (SH-SY5Y cells [1]): 27500 nM | β-Arrestin2 Recruitment Emax (% CP55,940) ± S.E.M (hCB2R [2]; [7]): 47 ± 1.8 % CP55,940 | EC50 (hCB2R [2]; CHO cells expressing human CB2R, 90 min, read-out: β-Arrestin2 Recruitment EC50 (95% C.I.)): > 10000 nM | modulation of cAMP response (hCB2R [3]; 10 μM FSK, 90 min): able to modulate the cAMP response | cAMP Inhibition Emax (% CP55,940) ± S.E.M (hCB2R [3]; [8]): 78 ± 11 % CP55,940 | EC50 (hCB2R [3]; CHO cells expressing human CB2R, 10 μM FSK, 90 min, read-out: cAMP Inhibition EC50 (95% C.I.)): 760 nM | melting point: 115 to 117 °C | Ki (hCB2R [4]): 45 nM | displacement of [3H]CP55,940 at hCB2R (hCB2R [4]): fully displaced [^3H]CP55,940 | displacement of [3H]CP55,940 at hCB1R (hCB1R): not able to displace [^3H]CP55,940 | Ki (hCB1R; read-out: CB1R Ki): > 10000 nM

CCCC(C)(C)c1ccc2c(c1)OC(C)(C)[C@@H]1CC=C(C)C[C@@H]21 [JWH-133]
effect on SH-SY5Y cell proliferation (SH-SY5Y cells [5]): inhibits SH-SY5Y cell proliferation

CC1CCC(NC(=O)c2cc3cccnc3n(CCCCCO)c2=O)CC1 (stereo not drawn) [LV62, reference compound]
effect on cell viability (SH-SY5Y cells [1]): inhibited cell viability | IC50 (SH-SY5Y cells [1]): 38100 nM | EC50 (hCB2R [2]): 63 nM | β-arrestin2 recruitment (hCB2R [2]; CHO cells expressing hCB2R, 90 min): produced an increase in the β-arrestin2 recruitment | β-Arrestin2 Recruitment Emax (% CP55,940) ± S.E.M (hCB2R [2]; [7]): 65 ± 1.4 % CP55,940 | EC50 (hCB2R [3]): 34 nM | cAMP Inhibition Emax (% CP55,940) ± S.E.M (hCB2R [3]; [8]): 110 ± 8.8 % CP55,940 | reversion in cell viability in the presence of SR144528, agonist concentration (SH-SY5Y cells [6]): only at 40 | Ki (hCB2R [4]): 37 nM | Ki (hCB1R): > 10000 nM | displacement of [3H]CP55,940 at hCB1R (hCB1R): not able to displace [^3H]CP55,940
